Assay results from ChEMBL document CHEMBL1201862, “PubChem BioAssay data set” (2004).
Activity calls are given as the source filed them.

Assays:
[1] = target: T1, Small ubiquitin-related modifier 1 (Homo sapiens, UniProt P63165); experiment: SUMO1 protein interaction blockers, potency – biochemical, fluorescence polarization, uHTS hits, dose response (AID 624382); assay type: functional; conditions: read-out: IC50_Mean
[2] = target: T1, Small ubiquitin-related modifier 1; experiment: SUMO1 protein-protein binding blockers, potency – biochemical, FRET, dose response (AID 624383); assay type: functional; conditions: read-out: IC50_Mean
[3] = target: T2, Adenosylmethionine-8-amino-7-oxononanoate aminotransferase (Mycobacterium tuberculosis, UniProt P9WQ81); experiment: Mycobacterium tuberculosis BioA enzyme inhibitor Measured in Biochemical System Using Plate Reader - 2163-02_Inhibitor_Dose_CherryPick_Activity.; assay type: functional, Mycobacterium tuberculosis UT205
T2 sequence (P9WQ81 whole entry): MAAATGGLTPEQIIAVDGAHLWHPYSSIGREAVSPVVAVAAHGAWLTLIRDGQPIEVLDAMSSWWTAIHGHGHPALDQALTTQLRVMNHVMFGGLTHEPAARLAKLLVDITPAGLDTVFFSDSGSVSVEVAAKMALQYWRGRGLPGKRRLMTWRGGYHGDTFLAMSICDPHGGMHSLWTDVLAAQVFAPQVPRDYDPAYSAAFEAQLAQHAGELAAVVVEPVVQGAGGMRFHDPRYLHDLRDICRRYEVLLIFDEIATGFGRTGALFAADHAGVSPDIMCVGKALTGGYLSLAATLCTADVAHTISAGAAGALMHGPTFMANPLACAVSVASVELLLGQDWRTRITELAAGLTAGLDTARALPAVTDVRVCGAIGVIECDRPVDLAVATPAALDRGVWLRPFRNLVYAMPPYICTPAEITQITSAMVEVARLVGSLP

BJ [4] = experiment: BJ-TERT fibroblast viability loss – cell-based, RAS-independent, luminescence, dose response (AID 1933); assay type: functional; conditions: Homo sapiens
[5] = tested on: Streptococcus sp. 'group A'; experiment: Streptococcus pyogenes SK(-)GAS viability under kanamycin – luminescence, BacTiterGlo, confirmation, counter-screen for streptokinase expression inhibitor project, dose response (AID 1900); assay type: functional, organism-based
[6] = target: Dual specificity tyrosine-phosphorylation-regulated kinase 1A (Rattus norvegicus, UniProt Q63470); assay type: biochemical, Homo sapiens
Nonstructural protein 1 = Nonstructural protein 1 (Influenza A virus, UniProt Q194T2); assay type: functional, Influenza A virus (A/California/07/2009(H1N1))
Nonstructural protein 1, sequence (Q194T2 whole entry): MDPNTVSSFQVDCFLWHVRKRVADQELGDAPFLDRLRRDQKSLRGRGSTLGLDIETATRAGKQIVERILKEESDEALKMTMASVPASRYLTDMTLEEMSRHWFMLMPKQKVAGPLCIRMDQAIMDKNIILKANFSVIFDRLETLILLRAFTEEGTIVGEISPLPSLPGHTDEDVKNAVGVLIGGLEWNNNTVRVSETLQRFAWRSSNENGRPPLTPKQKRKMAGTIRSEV

[7] = fluconazole-exposed Candida albicans growth modulators – fluorescence, retest, confirmation (AID 2467); assay type: functional, cell-based
Streptococcus = experiment: GAS UMAA2166 growth inhibition – luminescence, BacTiterGlo, counter-screen for streptokinase expression inhibitor project, dose response (AID 1915); assay type: functional, organism-based;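 also: potency for reduction of bacterial viability or growth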
[8] = target: T3, Heat shock factor protein 1 (Mus musculus, UniProt P38532); experiment: enhancement of HSF1-driven luciferase signal – cell-based, NIH3T3, luminescence, dose retest, confirmation (AID 435004); assay type: functional;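 also: stress induced by proteasome inhibitor MG132 added 30 min after compound; luciferase reporter driven by HSF1 response element in NIH3T3 cells; actives raise luminescence as potentiators of the MG132 stress response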
T3 sequence (P38532 whole entry): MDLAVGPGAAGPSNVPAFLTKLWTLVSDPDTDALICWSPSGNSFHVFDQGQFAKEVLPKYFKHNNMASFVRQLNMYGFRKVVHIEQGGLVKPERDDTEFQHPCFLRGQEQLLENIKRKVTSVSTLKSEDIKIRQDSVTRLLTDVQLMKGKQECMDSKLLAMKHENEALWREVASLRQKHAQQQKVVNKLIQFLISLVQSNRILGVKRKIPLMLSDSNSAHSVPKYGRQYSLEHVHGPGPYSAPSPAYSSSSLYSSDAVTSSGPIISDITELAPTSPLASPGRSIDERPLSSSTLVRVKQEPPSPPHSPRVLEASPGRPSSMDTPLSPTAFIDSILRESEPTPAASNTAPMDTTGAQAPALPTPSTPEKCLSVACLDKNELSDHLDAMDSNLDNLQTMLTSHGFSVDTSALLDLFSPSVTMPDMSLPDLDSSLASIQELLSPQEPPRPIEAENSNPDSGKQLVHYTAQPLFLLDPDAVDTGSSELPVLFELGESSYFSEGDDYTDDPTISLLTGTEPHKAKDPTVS

INS1 = experiment: INS-1E survival protection against cytokine death – cell-based, luminescence, retest, dose response (AID 449756); assay type: functional; conditions: Rattus norvegicus;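 also: cell death triggered by IL-1 beta plus TNF-alpha plus IFN-gamma mixture; protective hits raise ATP signal compared with cytokine alone wells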
Paired box protein Pax-8 = Paired box protein Pax-8 (Homo sapiens, UniProt Q06710); experiment: PAX8 transcriptional activity inhibition in RMG-I – RMG-I cells, luciferase, cherry-pick, dose response (AID 687027); assay type: functional, cell-based;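 also: luciferase reporter driven by Pax8 target thyroperoxidase promoter measured by SteadyGlo luminescence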
Paired box protein Pax-8, sequence (Q06710 whole entry): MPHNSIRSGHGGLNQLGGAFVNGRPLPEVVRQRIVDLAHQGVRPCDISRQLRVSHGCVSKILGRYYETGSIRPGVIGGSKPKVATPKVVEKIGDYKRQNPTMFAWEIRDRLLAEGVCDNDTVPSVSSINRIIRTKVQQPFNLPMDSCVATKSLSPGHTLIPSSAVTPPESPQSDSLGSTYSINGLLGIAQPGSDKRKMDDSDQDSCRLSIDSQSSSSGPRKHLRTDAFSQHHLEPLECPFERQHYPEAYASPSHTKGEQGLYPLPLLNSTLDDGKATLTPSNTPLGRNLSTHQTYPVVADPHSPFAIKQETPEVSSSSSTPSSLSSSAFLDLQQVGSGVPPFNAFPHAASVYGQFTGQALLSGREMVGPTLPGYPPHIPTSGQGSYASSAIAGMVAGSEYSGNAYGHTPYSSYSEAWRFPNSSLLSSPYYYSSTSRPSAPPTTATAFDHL

[9] = NIH-3T3 fibroblast cytotoxicity, dose response, cytotoxicity control, cell-based, fluorescence, Alamar Blue, secondary assay (AID 2327); assay type: functional;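 also: NIH-3T3 mouse fibroblasts cultured with fluconazole at 8 µg/mL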
BJ [10] = experiment: cells; assay type: functional, cell-based; conditions: Homo sapiens
[11] = target: Photoreceptor-specific nuclear receptor (Homo sapiens, UniProt Q9Y5X4); assay type: functional, cell-based;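 also: CHO-S cells with Gal4-NCOR and VP16-NR2E3 two-hybrid luciferase reporter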
Photoreceptor-specific nuclear receptor, sequence (Q9Y5X4 whole entry, the tested form may be a part): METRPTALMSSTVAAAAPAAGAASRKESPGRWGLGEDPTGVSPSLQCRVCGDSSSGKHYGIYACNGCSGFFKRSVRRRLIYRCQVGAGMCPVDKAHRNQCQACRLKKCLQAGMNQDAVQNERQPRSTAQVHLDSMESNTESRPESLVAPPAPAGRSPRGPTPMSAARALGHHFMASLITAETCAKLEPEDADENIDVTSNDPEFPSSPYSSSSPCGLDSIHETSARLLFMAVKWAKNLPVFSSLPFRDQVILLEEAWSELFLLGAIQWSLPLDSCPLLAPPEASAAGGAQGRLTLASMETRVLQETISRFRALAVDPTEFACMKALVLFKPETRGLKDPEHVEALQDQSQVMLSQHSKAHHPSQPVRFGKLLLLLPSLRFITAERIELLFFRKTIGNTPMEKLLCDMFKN

cells [12] = assay type: functional, cell-based
[13] = target: T4, Replicative DNA helicase DnaB (Mycobacterium tuberculosis, UniProt P9WMR3); experiment: DnaB intein splicing inhibitors, dose response, biochemical, cell-free fluorescence (AID 449749); assay type: functional
T4 sequence (P9WMR3 whole entry): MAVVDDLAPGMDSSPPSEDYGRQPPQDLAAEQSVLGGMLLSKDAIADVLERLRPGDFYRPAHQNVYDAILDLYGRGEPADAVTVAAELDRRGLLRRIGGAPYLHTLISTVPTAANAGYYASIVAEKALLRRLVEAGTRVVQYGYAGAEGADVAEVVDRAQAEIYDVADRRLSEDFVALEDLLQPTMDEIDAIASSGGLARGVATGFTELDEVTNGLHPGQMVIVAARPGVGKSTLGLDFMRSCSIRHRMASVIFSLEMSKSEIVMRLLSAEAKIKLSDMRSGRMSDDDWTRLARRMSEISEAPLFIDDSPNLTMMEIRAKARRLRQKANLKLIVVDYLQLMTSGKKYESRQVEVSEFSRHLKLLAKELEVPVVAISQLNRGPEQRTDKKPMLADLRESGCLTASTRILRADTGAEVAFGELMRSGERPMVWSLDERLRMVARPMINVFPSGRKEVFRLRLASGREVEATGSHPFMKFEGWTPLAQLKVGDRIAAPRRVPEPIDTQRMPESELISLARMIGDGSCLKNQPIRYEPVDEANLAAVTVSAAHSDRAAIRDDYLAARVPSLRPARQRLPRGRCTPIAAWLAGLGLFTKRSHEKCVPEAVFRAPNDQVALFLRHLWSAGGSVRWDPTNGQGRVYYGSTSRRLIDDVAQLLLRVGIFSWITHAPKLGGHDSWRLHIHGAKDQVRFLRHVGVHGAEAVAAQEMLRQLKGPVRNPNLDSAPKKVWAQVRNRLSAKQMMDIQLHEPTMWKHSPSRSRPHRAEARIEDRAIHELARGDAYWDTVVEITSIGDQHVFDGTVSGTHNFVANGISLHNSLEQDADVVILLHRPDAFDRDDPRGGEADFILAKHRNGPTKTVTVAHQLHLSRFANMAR

BJ [14] = experiment: BJ-TERT-LT-ST fibroblast viability loss – cell-based, RAS-independent, luminescence, dose response (AID 1935); assay type: functional; conditions: Homo sapiens;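 also: BJ fibroblasts immortalized with TERT plus LT and ST oncogenes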
cells [15] = assay type: functional, cell-based; remark: listed apart in the source
[16] = DRD fibroblast viability loss – cell-based, non-viral oncogenic, luminescence, dose response (AID 1934); assay type: functional; conditions: Homo sapiens
Protein RecA = target: T5, Protein RecA (Mycobacterium tuberculosis, UniProt P9WHJ3); experiment: Fluorescence Cell-Free Homogeneous Dose Retest to Identify Inhibitors of RecA-Intein Splicing Activity. [Related pubchem assays (depositor defined):AID2097, AID2223, AID489010, AID492950]; assay type: functional
T5 sequence (P9WHJ3 whole entry): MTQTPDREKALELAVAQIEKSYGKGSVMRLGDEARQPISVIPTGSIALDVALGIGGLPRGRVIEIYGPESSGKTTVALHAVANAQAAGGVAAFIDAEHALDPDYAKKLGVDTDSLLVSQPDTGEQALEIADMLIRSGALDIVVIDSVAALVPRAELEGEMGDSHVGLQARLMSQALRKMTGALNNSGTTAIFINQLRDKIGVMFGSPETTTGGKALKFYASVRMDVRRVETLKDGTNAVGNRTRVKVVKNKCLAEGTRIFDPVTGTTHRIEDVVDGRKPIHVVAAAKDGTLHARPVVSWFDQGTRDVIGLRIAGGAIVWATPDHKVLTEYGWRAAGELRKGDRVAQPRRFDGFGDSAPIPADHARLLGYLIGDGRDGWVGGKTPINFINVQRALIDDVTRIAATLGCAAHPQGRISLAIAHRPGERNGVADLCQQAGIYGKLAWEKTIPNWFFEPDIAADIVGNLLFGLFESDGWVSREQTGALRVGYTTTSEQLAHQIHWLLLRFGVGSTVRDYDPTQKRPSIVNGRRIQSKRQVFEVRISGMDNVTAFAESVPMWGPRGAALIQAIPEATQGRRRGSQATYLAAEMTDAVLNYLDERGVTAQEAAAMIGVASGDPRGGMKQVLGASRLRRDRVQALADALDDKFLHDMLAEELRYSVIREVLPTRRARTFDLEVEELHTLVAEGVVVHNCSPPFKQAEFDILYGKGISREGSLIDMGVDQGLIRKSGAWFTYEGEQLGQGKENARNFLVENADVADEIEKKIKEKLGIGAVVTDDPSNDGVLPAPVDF

[17] = target: Ras and Rab interactor 1/Tyrosine-protein kinase ABL1 (Homo sapiens, UniProt P00519+Q13671); assay type: functional;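 also: biochemical TR-FRET dose-response test measuring inhibition of binding between Rin1 and Abl proteins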
Ras and Rab interactor 1/Tyrosine-protein kinase ABL1, sequence (P00519 whole entry): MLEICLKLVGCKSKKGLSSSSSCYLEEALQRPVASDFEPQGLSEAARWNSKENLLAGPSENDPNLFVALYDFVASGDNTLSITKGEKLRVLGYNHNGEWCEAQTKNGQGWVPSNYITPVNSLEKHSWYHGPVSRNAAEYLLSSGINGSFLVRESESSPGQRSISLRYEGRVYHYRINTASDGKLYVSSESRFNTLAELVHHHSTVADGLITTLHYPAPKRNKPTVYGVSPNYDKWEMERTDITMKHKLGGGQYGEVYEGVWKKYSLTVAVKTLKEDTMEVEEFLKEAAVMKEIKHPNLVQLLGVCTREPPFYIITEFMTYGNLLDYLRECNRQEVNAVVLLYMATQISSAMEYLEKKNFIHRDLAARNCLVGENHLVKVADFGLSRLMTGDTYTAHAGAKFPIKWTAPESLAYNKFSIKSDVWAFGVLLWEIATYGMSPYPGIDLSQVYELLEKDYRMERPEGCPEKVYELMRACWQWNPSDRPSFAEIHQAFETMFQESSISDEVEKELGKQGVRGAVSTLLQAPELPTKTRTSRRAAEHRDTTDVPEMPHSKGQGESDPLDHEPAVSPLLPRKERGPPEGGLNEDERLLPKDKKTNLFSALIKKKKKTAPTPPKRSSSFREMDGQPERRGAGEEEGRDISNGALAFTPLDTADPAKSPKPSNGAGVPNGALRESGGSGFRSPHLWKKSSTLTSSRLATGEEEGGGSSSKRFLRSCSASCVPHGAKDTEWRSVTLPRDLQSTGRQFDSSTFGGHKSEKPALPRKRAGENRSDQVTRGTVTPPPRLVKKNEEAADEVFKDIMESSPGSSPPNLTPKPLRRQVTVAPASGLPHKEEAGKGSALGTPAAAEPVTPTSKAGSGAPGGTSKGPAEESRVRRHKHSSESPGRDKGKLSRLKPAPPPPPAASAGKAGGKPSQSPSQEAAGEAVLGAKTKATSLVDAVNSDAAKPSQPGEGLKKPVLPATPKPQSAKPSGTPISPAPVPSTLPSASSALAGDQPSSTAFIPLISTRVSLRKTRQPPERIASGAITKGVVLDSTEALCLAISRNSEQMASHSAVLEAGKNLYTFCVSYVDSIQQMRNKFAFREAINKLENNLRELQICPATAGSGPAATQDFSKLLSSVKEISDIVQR
Ras and Rab interactor 1/Tyrosine-protein kinase ABL1, sequence (Q13671 whole entry): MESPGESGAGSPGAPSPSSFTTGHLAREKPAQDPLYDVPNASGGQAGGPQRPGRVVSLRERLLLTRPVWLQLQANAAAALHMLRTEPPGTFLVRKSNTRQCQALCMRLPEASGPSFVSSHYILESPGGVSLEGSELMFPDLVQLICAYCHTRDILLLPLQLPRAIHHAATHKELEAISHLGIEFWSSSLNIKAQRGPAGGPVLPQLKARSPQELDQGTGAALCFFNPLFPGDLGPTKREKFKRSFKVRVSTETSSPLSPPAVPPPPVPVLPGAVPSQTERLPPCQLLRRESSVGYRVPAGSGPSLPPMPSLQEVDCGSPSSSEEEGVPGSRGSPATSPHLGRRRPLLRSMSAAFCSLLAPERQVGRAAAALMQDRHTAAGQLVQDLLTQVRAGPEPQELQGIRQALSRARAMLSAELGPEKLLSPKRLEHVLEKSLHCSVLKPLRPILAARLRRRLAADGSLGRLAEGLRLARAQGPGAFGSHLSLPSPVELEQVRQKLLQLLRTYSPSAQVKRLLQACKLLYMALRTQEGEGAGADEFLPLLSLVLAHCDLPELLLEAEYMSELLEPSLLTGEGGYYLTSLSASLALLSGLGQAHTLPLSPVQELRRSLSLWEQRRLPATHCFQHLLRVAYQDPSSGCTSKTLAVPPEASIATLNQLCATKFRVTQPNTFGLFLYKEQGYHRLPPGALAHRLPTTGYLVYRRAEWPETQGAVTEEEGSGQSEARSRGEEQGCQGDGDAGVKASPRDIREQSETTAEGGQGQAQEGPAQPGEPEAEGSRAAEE

P388 = experiment: cells; assay type: functional; conditions: Mus musculus
Vero = experiment: cells; assay type: functional; conditions: Chlorocebus sabaeus
P388/ADR = experiment: cells; assay type: functional; conditions: Mus musculus
[18] = Fluorescence-based cell-based high throughput dose response assay for inhibitors of the interaction of nucleotide-binding oligomerization domain containing 2 (NOD2) and the receptor-interacting serine-threonine kinase 2 (RIPK2).; assay type: functional; conditions: Homo sapiens
[19] = target: Heat shock protein HSP 90-alpha (Homo sapiens, UniProt P07900); assay type: functional, organism-based

T1 sequence (P63165 whole entry): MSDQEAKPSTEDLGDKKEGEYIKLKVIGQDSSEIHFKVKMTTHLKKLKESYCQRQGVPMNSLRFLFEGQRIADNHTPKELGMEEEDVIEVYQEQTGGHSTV

CC(=O)c1cccc(NC(=O)c2cccc(N3C(=O)c4ccccc4C3=O)c2)c1
IC50 [1]: > 66.6 µM (inactive)
IC50 [2]: 8.03 µM (active)

Cc1ccc(Cc2c(C)nc3nc(SCC(=O)NCCN4CCOCC4)nn3c2C)cc1
AC50 [3]: 12.6 µM (active)

Oc1[nH]c2ccc(Br)cc2c1N=NC(=S)N1CCOCC1
EC50 (BJ [4]): 1.81 µM (inconclusive)
EC50 [5]: < 0.06 µM (active)
AC50 [6]: 7.39 µM (active)
IC50 (Nonstructural protein 1): 19.9 µM (active)
EC50 [7]: 3.18 µM (active)
EC50 (Streptococcus): 0.167 µM (active)
EC50 [8]: > 260 µM (inactive)
AC50 (INS1): 1.6 µM (active)
AC50 (Paired box protein Pax-8): 1.55 µM (active)
EC50 [9]: > 150 µM (inconclusive)
EC50 (BJ [10]): 12.8 µM (inconclusive)
IC50 [11]: 1.81 µM (active)
EC50 (cells [12]): > 350 µM (not active)
AC50 [13]: > 380 µM (inactive)
EC50 (BJ [14]): 5.1 µM (inconclusive)
EC50 (cells [15]): 137 µM (active)
EC50 [16]: 7.46 µM (inconclusive)
EC50 (Protein RecA): 22.7 µM (active)

O=C(CCS(=O)(=O)c1ccc(Br)cc1)N1CCCCCC1
IC50 [1]: > 66.6 µM (inactive)
IC50 [2]: 13 µM (active)

O=C1CNC(=O)N1CC(O)Cn1c2ccccc2c2ccccc21 (centres undefined)
IC50 [17]: 11.9 µM (inactive)

COc1ccc(CC2C(=O)NC(C)C(=O)N(C)C3Cc4ccc(cc4)Oc4cc(ccc4O)CC(C(=O)NC(C)C(=O)NC(C)C(=O)N2C)N(C)C3=O)cc1 (centres undefined)
GI50 (P388): 0.0175 µM (active)
CC50 (Vero): 3.44 µM (active)
GI50 (P388/ADR): 3.94 µM (inactive)
AC50 (Paired box protein Pax-8): < 0.26 µM (active)
IC50 [18]: 49.8 µM (inactive)

CC1CC(C)C(=NNC(N)=O)C(C(O)CC2CCC(=O)NC2=O)C1 (centres undefined)
CC50 (Vero): > 25 µM (active)
AC50 [19]: < 0.195 µM (active)
IC50 [11]: 2.53 µM (active)

C[C@@H]1CCCCO[C@@H](CN(C)S(=O)(=O)c2ccccc2)[C@@H](C)CN([C@H](C)CO)C(=O)c2cc(NS(=O)(=O)c3ccc(F)cc3)ccc2O1
IC50 [17]: 1.9 µM (active)

COCCNC(=O)C[C@@H]1CC[C@@H]2[C@@H](COc3ccc(NC(=O)Nc4cccc(F)c4)cc3C(=O)N2C)O1
AC50 [3]: 10.8 µM (active)
